These results are taken from patent US11767298B2, “Substituted benzimidazoles as inhibitors of transforming growth factor-β kinase” (Duke University, priority 2016, dated 2023).

Entries after “also recorded” stand apart in the source; their conditions may differ. Where two headings read alike, the source gives them in different places.

One experiment concerns the target TAK1 (Homo sapiens, UniProt O43318). Description: Kinase profiling (Dundee), TAK1. It counts as biochemical. As for the experimental part: (§1) Kinase selectivity profiling. The selectivity profile of HS-206 to inhibit mammalian kinases was tested against a panel of 140 kinases at a single concentration of 10 μM. Tests were performed using a radiolabeld (^33P-ATP) filter-binding assay at the International Centre for Kinase Profiling at the University of Dundee, UK (http://www.kinase-screen.mrc.ac.uk/).
(§2) This panel contains members of all major kinase families, including tyrosine kinases (TK), tyrosine kinase-like (TKL), sterile serine/threonine (STE), and CDK/MAPK/GSK/CLK (CMGC). […] For these kinases, IC50 values were determined (Table 1).

A further experiment has as its system P. berghei. Briefly: Liver stage parasite load, luciferase-expressing P. berghei in Huh7 cells. As to conditions: Huh7 host cells, read-out: IC50 Liver state (Huh7). It counts as cell-based, Plasmodium berghei ANKA. The protocol: Cell-based anti-Plasmodium assays. For liver stage assays, 15,000 HepG2 or 8,000 Huh7 cells/well were added to 384-well microtiter plates using a multichannel pipette (Rainin). After 2 hours at 37° C., compounds (0-100 μM) were added to cells in duplicate or triplicate in a final concentration of 1% DMSO. DMSO was used as the negative control. Following compound incubation at 37° C. for ˜1 hr, harvested luciferase-expressing P. berghei ANKA sporozoites were added to the plates at a density of 3,000 sporozoites/well. P. berghei ANKA sporozoites were obtained from harvesting the salivary glands of infected A. stephensi mosquitoes. The plates were spun for 10 min at 1,000 rpm, and then incubated at 37° C. for ˜45 hrs. […] After ˜45 hours at 37° C., liver cell viability was assessed using CellTiter-Fluor (Promega) and then parasite load was determined using Bright-Glo (Promega). The relative fluorescence and luminescence signal intensity of each well was evaluated with an EnVision System. The luminescence signal in the presence of compounds was normalized to the negative control (DMSO). Dose-response analysis was performed with GraphPad Prism to yield the reported EC50 values.
Specifically, their ability to inhibit P. berghei infection in two human hepatoma cell lines (HepG2 and Huh7) as well as cytotoxicity against HepG2 and Huh7 cells was determined as described above. Liver cell cytotoxicity was evaluated with two different commercially available assays, one that tests for intracellular protease activity with a fluorescence reporter and another that relies on the luminescent detection of total ATP.

For a further experiment, the system named is MDA-MB-231. Description: Viability and proliferation assays on breast cancer cell lines. It counts as cell-based. The following applies: 48 h and 72 h.
The subject of a further experiment is PfPK9. Briefly: UBC13 phosphorylation by PfPK9 (ADP luminescence assay). It counts as biochemical, P. falciparum. The following applies: compared to DMSO. As for the experimental part: Recombinant protein expression and enzyme activity assay. Recombinant GST-tagged PfPK9 was expressed in E. coli BL21(DE3) cells, purified to homogeneity, and the GST tag was cleaved with PreScission Protease (GE Healthcare). To test for inhibition of PfPK9, the ADP detection assay ADP-Glo (Promega) was used to determine ATPase activity of PfPK9 in the presence of the PfUBC13 protein substrate when treated with compounds 1 and 5. Approximately 500 nM PfPK9 was incubated with either compound (10 μM or 500 μM) for 5 min at RT in buffer containing 40 mM Tris, pH 7.5, 20 mM MgCl2, 2 mM MnCl2 and 1 mM DTT prior to assay initiation with 100 μM ATP. The assay was performed in white low-volume 384-well plates (Corning #3824) in triplicate. The assay plate was sealed and subsequently incubated for 8 hrs at 37° C. before ADP detection per manufacturer instructions. The final assay volume was 5 μL with a final concentration of 1% DMSO. A negative control was performed in 1% DMSO and heat inactivated PfPK9 (80° C. for 5 min) was used as a positive control. The luminescence intensity in each well was measured on an EnVision system. Data were normalized to the average luminescence signal of the negative control to provide relative ADP concentrations and graphs were constructed in GraphPad Prism. Data analyses were conducted from three independent experiments. […]

Another experiment deals with CLK2 (Homo sapiens, UniProt P49760). Briefly: Kinase profiling (Dundee), CLK2. It counts as biochemical. The following applies: 10 μM. As for the experimental part:
as §1, §2

For experiment [1], the system named is TAK1 downstream signaling (IKK, p38) in MDA-MB-231 cells. Description: TNFα dependent signaling in MDA-MB-231 cells. The format is cell-based. As to conditions: 10 μM, 2 h pretreatment, TNFα stimulation. The protocol: In order to investigate the effects of HS-206 on cellular signaling, MDA-MB-231 and Hela cells were pretreated with 10 μM HS-206 for 2 h and stimulated with TNFα (FIG. 8).

Sequence of TAK1 (O43318 with tags, fused parts or gaps limits assumed): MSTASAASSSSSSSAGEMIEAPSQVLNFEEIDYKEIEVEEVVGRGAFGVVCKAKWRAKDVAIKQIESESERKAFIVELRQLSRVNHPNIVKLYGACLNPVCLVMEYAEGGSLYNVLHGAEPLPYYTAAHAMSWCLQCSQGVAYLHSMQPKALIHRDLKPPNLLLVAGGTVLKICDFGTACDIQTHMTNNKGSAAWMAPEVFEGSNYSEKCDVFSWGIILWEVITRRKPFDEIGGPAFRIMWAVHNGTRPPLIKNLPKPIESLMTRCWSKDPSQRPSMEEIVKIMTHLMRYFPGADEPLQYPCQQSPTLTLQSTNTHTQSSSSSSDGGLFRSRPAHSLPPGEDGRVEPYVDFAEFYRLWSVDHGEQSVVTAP
Sequence of CLK2 (P49760 whole entry): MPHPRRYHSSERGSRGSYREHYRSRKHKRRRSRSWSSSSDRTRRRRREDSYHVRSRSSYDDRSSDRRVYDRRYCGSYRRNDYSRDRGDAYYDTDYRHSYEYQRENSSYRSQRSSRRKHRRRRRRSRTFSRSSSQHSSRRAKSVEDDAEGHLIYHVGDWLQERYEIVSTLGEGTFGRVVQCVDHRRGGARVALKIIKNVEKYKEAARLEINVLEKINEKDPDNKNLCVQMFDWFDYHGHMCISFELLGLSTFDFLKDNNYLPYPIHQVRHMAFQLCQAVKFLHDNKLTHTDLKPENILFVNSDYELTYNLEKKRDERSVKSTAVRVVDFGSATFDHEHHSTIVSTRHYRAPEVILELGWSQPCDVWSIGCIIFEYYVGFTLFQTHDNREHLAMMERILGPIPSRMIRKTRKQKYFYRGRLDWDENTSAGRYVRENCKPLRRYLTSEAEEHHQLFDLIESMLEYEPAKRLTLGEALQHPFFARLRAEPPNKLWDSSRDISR

Broadly, the IC50 is the concentration at which inhibition is half-maximal. A word on the inhibition: it is the percentage by which the read-out fell short of the control. Read a low inhibition as a weak effect. Regarding `CCCn1c(NC(=O)c2cccc(C(N)=O)c2)nc2ccccc21` [HS-206 (1), (E)-N-(1-Propyl-1,3-dihydro-2H-benzo[d]imidazol-2-ylidene)isophthalamide], the IC50 was 0.0095 ± 0.002 µM on TAK1; roughly 7 µM in the experiment with P. berghei (Plasmodium berghei, Huh-7, parasite load); 7.3 µM in the experiment on P. berghei (parasite load). Moreover, the inhibition at 10 µM at TAK1 (10 μM) and at CLK2 was greater than 90% each time. The cell proliferation entry with MDA-MB-231 is “significant reduction in cell proliferation; also recorded: inhibits cell proliferation in a dose-dependent manner”. Further, the “UBC13 phosphorylation by PfPK9” value in the experiment with PfPK9 is “significantly decreased”. In addition, the “TNFα dependent signaling (activation of IKK and p38)” value in experiment [1] is “inhibited activation of IKK and p38; also recorded: inhibits TNFα dependent signaling”.
